Laboratory results published in US8404266B2, “Method for stabilization of S-nitrosoglutathione and composition prepared by the same” (Pharmagenix AG, priority 2008, dated 2013).

Assay: GSNO decomposition at different pH values, monitored spectrophotometrically at 540 nm (FIG. 3)
Format: physicochemical
Excerpt: The GSNO is a brown colored compound having a characteristic absorption spectrum. One of its two characteristic peaks is in the UV range, while the maximum of the other is around 540 nm. During decomposition the absorption spectrum of GSNO goes through a change. The change in the height of the peak at 540 nm is linearly proportional with the concentration of GSNO. Wavelengths at far IR range can be used as background absorption, since no change occurs in them during the decomposition process of GSNO. These features allow monitoring the concentration of GSNO spectrophotometrically. […] On the X-axis the time (given in days) and on the Y-axis absorbency values are given. Symbols Indicate the Following pH Values: • *: pH=0.3; • ♦: pH=4.26; • □: pH=7.4; • ▪: pH=8.6; • ◯: pH=12.6. The decomposition of GSNO was monitored spectrophotometrically, since the absorption spectrum of GSNO undergoes changes and the size change of the peak at 540 nm is linearly proportional with the concentration of GSNO. Wavelengths at far IR range were used as background absorption, since no change occurs in them during the decomposition of GSNO.

N[C@@H](CCC(=O)N[C@@H](CSN=O)C(=O)NCC(=O)O)C(=O)O [GSNO, S-nitrosoglutathione]
GSNO metabolism (decomposition) (more alkaline conditions, curve of pH 12): gets accelerated | stability (pH about 8.6, compared with conventionally applied pH 4.26): very good stability | pH range of plateau-like maximum of stability (pH range): 7.5 to 10 | metabolic rate of GSNO (under alkaline conditions): significantly be decreased
